From patent US11260072B2, “MicroRNA-based methods and assays for osteocarcinoma” (3-D Matrix, Ltd., priority 2011, dated 2022) come the findings set out here.

Data set [1] concerns CD133^low SaOS2 cells. The data set can be described thus: siRNA knockdown, cell growth in the presence of cisplatin. It counts as cell-based, human. Particulars: siRNA 100 nM, 72 h after transfection. Here is the method: (§1) Transfection with synthetic miRNAs, LNAs, and siRNAs. Synthetic hsa-miRs (Pre-miR-hsa-miR-1, -10b, -133a, and negative control (NC; Applied Biosystems, Table 2) and locked nucleic acids (LNAs) (LNA-1, -10b, -133a, and negative control, Exiqon, Table 3) were transfected into each type of cells at 30 nM each (final concentration) using DharmaFECT 1(GE Healthcare). Synthetic siRNAs (Bonac corporation, Table 4) were transfected into each type of cells at 100 nM each (final concentration) using DharmaFECT 1 (GE Healthcare). After 24 hours of incubation, cells were treated with chemotherapeutic agents for cytotoxicity assay or reseeded into invasion chambers for invasion assay.
(§2) Next, the expression of these molecules was reduced using siRNA-induced gene knockdown system to investigate whether these candidates are functionally important targets of miR-133a in osteosarcoma cells.

The subject of data set [2] is CD133^low SaOS2 cells. In words: siRNA knockdown, invasion assay. It counts as cell-based, human. Particulars: siRNA 100 nM, 72 h after transfection. As to the method: Invasion assay. Invasion assays were performed by using 24-well BD BioCoat Invasion Chambers with Matrigel (Becton-Dickinson). 1×10^5 cells, suspended in 500 μL DMEM or RPMI 1640 medium without FBS, were added to the upper chamber, and DMEM or RPMI 1640 medium with 10% FBS was added to the lower chamber. After incubation for 24 h or 36 h, the cells on the upper surface of the filter were completely removed by wiping them with cotton swabs. The filters were fixed in methanol and stained with 1% toluidine blue in 1% sodium tetraborate (Sysmex). Filters were then mounted onto slides, and cells on lower surfaces were counted. Each assay was performed in triplicate.
as §1, §2

The next data set deals with 143B cells. The data set can be described thus: qRT-PCR of miRNAs and CD133 mRNA in drug-treated 143B cells. Type of data set: cell-based, human. The following applies: for CD133 mRNA expression: 143B cells; for expression of miR-1, miR-10b, and miR-133a: 3 days treatment, relative to untreated 143B cells. From the text: (§3) RNA isolation and quantitative real-time RT-PCR of mRNAs and miRNAs. Total RNA was purified from cells and tumor tissues with an RNeasy Mini Kit and RNase-Free DNase Set (QIAGEN). For quantitative polymerase chain reaction (qPCR) of mRNAs, cDNA was synthesized using High-Capacity cDNA Reverse Transcription Kit (Applied Biosystems). For each qPCR reaction, equal amounts of cDNA were mixed with Platinum SYBER Green qPCR SuperMix (Invitrogen) and specific primers (Table 1). Gene expression levels were normalized by beta actin (ACTB) or glyceraldehyde 3-phosphate dehydrogenase (GAPDH). For qPCR of miRNAs, miRNA was converted to cDNA using the TaqMan MicroRNA Reverse Transcription Kit (Applied Biosystems). RNU6B small nuclear RNA was amplified as an internal control. qPCR was performed using each miRNA-specific probe included with the TaqMan MicroRNA Assay on a Real-Time PCR System 7300 and SDS software (Applied Biosystems).
In addition, the expression of miR-133a was enhanced by cisplatin in CD133^low HOS cells. […] CDDP-treated CD133^low HOS cells could form tumors with as few as 100 cells per injection, whereas the untreated CD133^low HOS cells could not (FIG. 23 and Table 9). […] Therefore, we reasoned that silencing of miR-133a before or during chemotherapy would prevent the increase of the expression of miR-133a, which enhanced TIC phenotypes and was induced by chemotherapeutics.
(In general: Real-time PCR tracks product formation cycle by cycle.)

A further data set concerns 143B-luc. In words: spontaneous lung metastasis model of osteosarcoma (143B-luc implanted orthotopically into tibia). Type of data set: in vivo, athymic nude mice. As to the method: (§4) Tumor transplantation experiments. Animal experiments were performed in compliance with the guidelines of the Institute for Laboratory Animal Research, National Cancer Center Research Institute. Athymic nude mice or NOD/SCID mice (CLEA Japan) were purchased at 4 weeks of age and given at least 1 week to adapt to their new environment prior to tumor transplantation. On day 0, mice were anesthetized with 3% isoflurane and the right leg disinfected with 70% ethanol. Cells were aspirated into a 1 mL tuberculin syringe fitted with a 27-G needle. The needle was inserted through the cortex of the anterior tuberosity of the tibia with a rotating movement to avoid cortical fracture. Once the bone was traversed, the needle was inserted further to fracture the posterior cortex of the tibia. A 100 μL volume of solution containing freshly isolated CD133^high and CD133^low HOS-Luc (10^2, 10^3, 10^4, 10^5 cells per site) or 143B-Luc (1.5×10^6) was injected while slowly moving back the needle.
Monitoring tumor growth, lung metastasis, and toxicity with/without LAN-anti-miR-133a. For the assessment of tumorigenicity between CD133^high and CD133^low HOS-Luc cells, NOD/SCID mice were injected with D-luciferin (150 mg/kg, Promega) by intraperitoneal injection. Ten minutes later, photons from firefly luciferase were counted using the IVIS imaging system (Xenogen Corp.) according to the manufacturer's instructions. Each experimental condition included 5 animals per group and monitoring once a week. For the evaluation of LNA-anti-miR-133a administration into spontaneous lung metastasis of osteosarcoma model mice, individual mice were injected with 10 mg/kg of LNA-anti-miR-133a or saline via the tail vain. LNA were injected on following days 4, 11, 18, 25, 32 postinoculation of 143B-Luc cells. Each experimental condition included 10 animals per group. The development of subsequent lung metastasis was monitored once a week in vivo by the bioluminescent imaging described above for 5 weeks. All data were analyzed using LivingImage software (version 2.50, Xenogen). On day 36, the primary tumor and lung in 5 mice of each group were resected at necropsy for their weight, bioluminescent, and histological analyses. The blood examination, weight of whole body as well as heart, liver, and skeletal muscle, and histopathological examination were performed for the assessment of toxicity.
To extend the in vitro findings and to determine whether silencing of miR-133a could be an effective therapeutic option for osteosarcoma treatment, the effect of LNA-133a on a spontaneous lung metastasis model of osteosarcoma was examined. Experimentally, 1.5×10^6 cells of 143B transfected with firefly luciferase gene (143B-luc) were implanted orthotopically into the right proximal tibia of athymic nude mice. The implanted tumor growth and the presence of distant metastases were analyzed weekly for luciferase bioluminescence using an in vivo imaging system (IVIS). […] To assess the efficacy of the new treatment protocol, results were compared with three control groups (n=10 each): a saline control group, an LNA group, and a CDDP group. At 5 weeks, half the mice in each group were euthanized for further analysis; the remaining mice were monitored for survival.

Another data set deals with CD133^low HOS cells. In words: miR-133a expression in cisplatin-treated CD133low HOS cells. It counts as cell-based, human.
Excerpt: as §3

The next data set concerns CD133^low HOS-luc cells. In words: tumorigenicity of CDDP-treated CD133low HOS-luc cells in mice. It counts as in vivo. Here is the method:
as §4, with “A 100 μL volume of solution containing freshly isolated CD133^high and CD133^low HOS-Luc (10^2, 10^3, 10^4, 10^5 cells per site) or 143B-Luc (1.5×10^6) was injected while slowly moving back the needle.” left out
Monitoring tumor growth, lung metastasis, and toxicity with/without LAN-anti-miR-133a. […] Ten minutes later, photons from firefly luciferase were counted using the IVIS imaging system (Xenogen Corp.) according to the manufacturer's instructions. […] The development of subsequent lung metastasis was monitored once a week in vivo by the bioluminescent imaging described above for 5 weeks. All data were analyzed using LivingImage software (version 2.50, Xenogen). […]

The test system of another data set is miR-1. In words: knock-down of miR-1 in LNA-transfected CD133high SaOS2 cells. Type of data set: cell-based, human.
Excerpt: as §3
(§5) Transfection with synthetic miRNAs, LNAs, and siRNAs. […]

Another data set deals with miR-10b. In words: knock-down of miR-10b in LNA-transfected CD133high SaOS2 cells. Type of data set: cell-based, human.
Excerpt: as §3, §5

d = 2'-deoxy (DNA); r = 2'-OH (RNA)

With “ROD1: synthetic siRNA against ROD1 (Bonac corporation), Table 4 (sense GGGAAUGACAGCAAGAAAUTT; antisense AUUUCUUGCUGUCAUUCCCTT; sugars from the 5' end r19 d2, backbone not given here)”, the “drug resistance after knockdown” value with CD133^low SaOS2 cells [1] was “enhanced drug resistance”.

For “DUSP11: synthetic siRNA against DUSP11 (Bonac corporation), Table 4 (sense CCAGAGGAUUUGCCAGAAATT; antisense UGUGUCUCGGAUUAGGAAGTT; sugars from the 5' end r19 d2, backbone not given here)”, the “drug resistance after knockdown” value in the data set on CD133^low SaOS2 cells [1] is “enhanced drug resistance”. In addition, the invasiveness after knockdown entry in the data set with CD133^low SaOS2 cells [2] is listed as “enhanced invasiveness”.

In the case of “MAST4: synthetic siRNA against MAST4 (Bonac corporation), Table 4 (sense GGAGGUACCUUCUUCCAAATT; antisense UAUCAAACUUCCUCUUCUGTT; sugars from the 5' end r19 d2, backbone not given here)”, the “drug resistance after knockdown” value in the data set with CD133^low SaOS2 cells [1] was “enhanced drug resistance”.

Regarding `N.N.[Cl][Pt][Cl]` [CDDP, cis-diamtninedichloroplatinum (II)], the “CD133 mRNA expression” value with 143B cells is given as “induction”; in the data set with 143B cells (listed as cisplatin), “induced”. The “expression of miR-1, miR-10b, and miR-133a” value in the data set with 143B cells is given as “increased level”. In addition, the “Luminescence of lung (mean)” value in the data set with 143B-luc (IVIS bioluminescence) came to 2855. In addition, in the data set with 143B-luc (compared to the other groups, LNA-133a 10 mg kg-1 i.v., CDDP 2 mg kg-1 i.p.), the tumor growth result is “No significant differences in tumor growth”. Moreover, the “Lung metastasis (mice with metastasis / mice in group)” value in the data set with 143B-luc (day 35) is reported as 8/10. The “Tumor weight (mean)” value in the data set with 143B-luc (day 36, LNA-133a 10 mg kg-1 i.v., CDDP i.p.) amounted to 3.957 g. In the data set on CD133^low HOS cells, the “expression of miR-133a” value is “enhanced”. Besides, the “Tumor Incidence” value with CD133^low HOS-luc cells (100 cells per injection, cells treated with CDDP) is listed as 5/5. Besides, the “in vivo tumorigenicity of CD133low HOS population” value in the data set with CD133^low HOS-luc cells (mouse, in vivo) was “increased in vivo tumorigenicity”.

Turning to “LNA-1: locked nucleic acid antisense to hsa-miR-1-2, 5′-ACATACTTCTTTACATTCCA-3′ (Exiqon) (LNA-modified (Exiqon), pattern not given here)”, the miR-1 expression entry in the data set on miR-1 is given as “knock-down”.

As to “SNX30: synthetic siRNA against SNX30 (Bonac corporation), Table 4 (sense CCGAGAAGUUUGUGGUAAATT; antisense UUUACCACAAACUUCUCGGTT; sugars from the 5' end r19 d2, backbone not given here)”, in the data set with CD133^low SaOS2 cells [2], the invasiveness after knockdown entry is recorded as “enhanced invasiveness”.

On to “ANXA2: synthetic siRNA against ANXA2 (Bonac corporation), Table 4 (sense UGACCAAGAUGCUCGGGAUTT; antisense AUCCCGAGCAUCUUGGUCATT; sugars from the 5' end r19 d2, backbone not given here)”, for which, in the data set with CD133^low SaOS2 cells [1], the “drug resistance after knockdown” value is given as “enhanced drug resistance”. Besides, the invasiveness after knockdown entry with CD133^low SaOS2 cells [2] is given as “enhanced invasiveness”.

Turning to `COc1cccc2c1C(=O)c1c(O)c3c(c(O)c1C2=O)C[C@@](O)(C(=O)CO)C[C@@H]3O[C@H]1C[C@H](N)[C@H](O)[C@H](C)O1` [DOX, doxorubicin], in the data set with 143B cells, the “CD133 mRNA expression” value was “induction”; the “expression of miR-1, miR-10b, and miR-133a” value is recorded as “increased level”.

Regarding “UBA2: synthetic siRNA against UBA2 (Bonac corporation), Table 4 (sense GGACUGGGCUGAAGUACAATT; antisense UUGUACUUCAGCCCAGUCCTT; sugars from the 5' end r19 d2, backbone not given here)”, in the data set with CD133^low SaOS2 cells [2], the invasiveness after knockdown result is listed as “enhanced invasiveness”.

As for “LNA-10b: locked nucleic acid antisense to hsa-miR-10b, 5′-ACAAATTCGGTTCTACAGGGT-3′ (Exiqon) (LNA-modified (Exiqon), pattern not given here)”, the miR-10b expression result with miR-10b is “knock-down”.

With “SGMS2: synthetic siRNA against SGMS2 (Bonac corporation), Table 4 (sense CCACUAGAGUGGUGGAAAATT; antisense UUUUCCACCACUCUAGUGGTT; sugars from the 5' end r19 d2, backbone not given here)”, in the data set on CD133^low SaOS2 cells [2], the invasiveness after knockdown entry is listed as “enhanced invasiveness”.
